Results from US4623715A, “Novel peptides which are active on the central nervous system and have an action on the cholinergic system” (Hoechst Aktiengeselleschaft, priority 1984, dated 1986).

Key:
rats = assay: Behavior (grooming, yawning, stretching; urge to groom and move) after i.c.v. administration; assay type: in vivo; settings: i.c.v. administration of 10 μg
[1] = system: cholinergic system (striatum of rats); assay: Biochemical effects in the striatum (acetylcholine and choline content) after s.c. administration; action on the cholinergic system; assay type: in vivo; settings: for Biochemical effects in the striatum: ACH (acetylcholine) / Biochemical effects in the striatum: CH (choline): s.c., at the dose printed in the same line (E2), arrow up/down = content increased/reduced; for Biochemical effects in the striatum: Dose mcg/kg s.c.; (rats): s.c. dose in rats at which the ACH/CH effects of the same line are reported
Description: At the same time, cholinergic mechanisms in the central nervous system (CNS) are influenced. In the striatum of rats, the choline content is reduced and the acetylcholine content is increased following subcutaneous administration of 10 μg.
The action of the compounds according to the invention on the cholinergic system is determined by a method described in J. Neurochem. 20 (1973), pages 1-8.

[2] = system: acetylcholine conversion in various areas of the brain; settings: intracerebroventricular (i.c.v.) administration; cited from earlier work
[3] = system: cholinergic system (striatum of rats); assay: Biochemical effects in the striatum (acetylcholine and choline content) after s.c. administration; action on the cholinergic system; assay type: in vivo; settings: s.c. administration of 1 μg
[4] = rats, subcutaneous administration of 10 μg

Molecule | urge to groom and move (rats) | acetylcholine content in the striatum [1, 4] | choline content in the striatum [1, 4] | acetylcholine conversion in various areas of the brain [2] | Biochemical effects in the striatum: ACH (acetylcholine) ([1]; rats) | Biochemical effects in the striatum: CH (choline) ([1]; rats) | Biochemical effects in the striatum: Dose mcg/kg s.c.; (rats) [1] [µg/kg] | acetylcholine content in the striatum ([3]; same actions as IV at 10 μg (increased)) | choline content in the striatum ([3]; same actions as IV at 10 μg (reduced))
COC(=O)[C@H](Cc1ccccc1)NC(=O)[C@H](CCCCN)NC(=O)OCc1ccccc1 [IV, Z--Lys--Phe--OMe] | cause the urge to groom and move | increased | reduced | – | – | – | – | – | –
ACTH (SYSMEHFRWGKPVGKKRRPVKVYPNGAEDESAEAFPLEF; Corticotropin; UniProt P01189 138-176, looked up) [peptide hormone cited from the literature] | – | – | – | acceleration | – | – | – | – | –
ACTH--(1-24) [VI, reference compound] | – | – | – | acceleration | .dwnarw. | .uparw. | 0.01 to 1 | – | –
Z--D--Lys--Phe--NH--(CH2)8 --NH2.2HCl [V] | – | – | – | – | .uparw. | .dwnarw. | 1.0 | the same actions | the same actions
